The results in this text go back to patent US8367584B2, “Naphthalene isoxazoline compounds for control of invertebrate pests” (E.I. du Pont de Nemours and Company, priority 2007, dated 2013).

Molecules are shown by their SMILES.

Assay type in all cases: in vivo
In assay [1] the test system is diamondback moth (Plutella xylostella). Briefly: Test A: control of diamondback moth on radish plant, foliar spray. Conditions: sprayed at 50 ppm; neonate larvae on radish plant; held 6 days at 25° C.; three replicates. The source says:
For evaluating control of diamondback moth (Plutella xylostella), the test unit consisted of a small open container with a 12-14-day-old radish plant inside. This was pre-infested with about 50 neonate larvae that were dispensed into the test unit via corn-cob grits using a bazooka inoculator. The larvae moved onto the test plant after being dispensed into the test unit.
(§1) Test compounds were formulated using a solution containing 10% acetone, 90% water and 300 ppm X^77™ Spreader Lo-Foam Formula non-ionic surfactant containing alkylarylpolyoxyethylene, free fatty acids, glycols and isopropanol (Loveland Industries, Inc. Greeley, Colo., USA). The formulated compounds were applied in 1 mL of liquid through a SUJ2 atomizer nozzle with 1/8 JJ custom body (Spraying Systems Co. Wheaton, Ill., USA) positioned 1.27 cm (0.5 inches) above the top of each test unit. All experimental compounds in this test were sprayed at 50 ppm, and the test was replicated three times. After spraying of the formulated test compound, each test unit was allowed to dry for 1 h and then a black, screened cap was placed on top. The test units were held for 6 days in a growth chamber at 25° C. and 70% relative humidity. Plant feeding damage was then visually assessed based on foliage consumed and a pest mortality rating was also counted and calculated for each test unit.

Assay [2] relates to fall armyworm (Spodoptera frugiperda). In words: Test B: control of fall armyworm on corn (maize) plant, foliar spray. The note with it: sprayed at 50 ppm; 1-day-old larvae on corn (maize) plant; three replicates. How it is done:
as §1
For evaluating control of fall armyworm (Spodoptera frugiperda), the test unit consisted of a small open container with a 4-5-day-old corn (maize) plant inside. This was pre-infested (using a core sampler) with 10-15 1-day-old larvae on a piece of insect diet. Test compounds were formulated and sprayed at 50 ppm as described for Test A, and the test was replicated three times. After spraying, the test units were maintained in a growth chamber and then the control efficacy was rated for each test unit as described for Test A.

Assay [3] deals with potato leafhopper (Empoasca fabae). In words: Test C: control of potato leafhopper through contact and/or systemic means on Soleil bean plant. Conditions: 144 h, sprayed at 250 ppm, adults on Soleil bean plant, held 6 days at 19-21° C., three replicates, read-out: control efficacy: mortality. The protocol:
as §1
For evaluating control of potato leafhopper (Empoasca fabae) through contact and/or systemic means, the test unit consisted of a small open container with a 5-6-day-old Soleil bean plant (primary leaves emerged) inside. White sand was added to the top of the soil and one of the primary leaves was excised prior to application. Test compounds were formulated and sprayed as described for Test A. All experimental compounds in these tests were sprayed at 250 ppm, and the test was replicated three times. After spraying, the test units were allowed to dry for 1 hour before they were post-infested with 5 potato leafhoppers (18-21-day-old adults). A black, screened cap was placed on the top of the cylinder. The test units were held for 6 days in a growth chamber at 19-21° C. and 50-70% relative humidity. The control efficacy of each test unit was then visually assessed by the insect mortality.

Assay [4] deals with green peach aphid (Myzus persicae). In words: Test E: control of green peach aphid through contact and/or systemic means on radish plant. The note with it: 144 h, sprayed at 250 ppm, aphids on radish plant, held 6 days at 19-21° C., three replicates, read-out: control efficacy: mortality. How it is done: Test compounds were formulated using a solution containing 10% acetone, 90% water and 300 ppm X^77™ Spreader Lo-Foam Formula non-ionic surfactant containing alkylarylpolyoxyethylene, free fatty acids, glycols and isopropanol (Loveland Industries, Inc. Greeley, Colo., USA). The formulated compounds were applied in 1 mL of liquid through a SUJ2 atomizer nozzle with 1/8 JJ custom body (Spraying Systems Co. Wheaton, Ill., USA) positioned 1.27 cm (0.5 inches) above the top of each test unit. All experimental compounds in this test were sprayed at 50 ppm, and the test was replicated three times. After spraying of the formulated test compound, each test unit was allowed to dry for 1 h and then a black, screened cap was placed on top. The test units were held for 6 days in a growth chamber at 25° C. and 70% relative humidity. Plant feeding damage was then visually assessed based on foliage consumed and a pest mortality rating was also counted and calculated for each test unit. […]
Test compounds were formulated and sprayed as described for Test A. All experimental compounds in these tests were sprayed at 250 ppm, and the test was replicated three times. […] Each test unit was then visually assessed for insect mortality.

For assay [5], the system named is silverleaf whitefly (Bemisia tabaci). Briefly: Test F: control of silverleaf whitefly on cotton plant. Conditions: 144 h, sprayed at 250 ppm, 2nd and 3rd instar nymphs on cotton plant, held 6 days, three replicates, read-out: control efficacy: mortality. The protocol: For evaluating control of silverleaf whitefly (Bemisia tabaci), the test unit consisted of a 14-21-day-old cotton plant grown in Redi-earth® media (Scotts Co.) with at least two true leaves infested with 2nd and 3rd instar nymphs on the underside of the leaves.
Test compounds were formulated in no more than 2 mL of acetone and then diluted with water to 25-30 mL. The formulated compounds were applied using a flat fan air-assisted nozzle (Spraying Systems 122440) at 10 psi (69 kPa). Plants were sprayed to run-off on a turntable sprayer (patent publication EP-1110617-A1). All experimental compounds in this screen were sprayed at 250 ppm, and the test was replicated three times. After spraying of the test compound, the test units were held for 6 days in a growth chamber at 50-60% relative humidity and 28° C. daytime and 24° C. nighttime temperature. Then the leaves were removed and then dead and live nymphs were counted to calculate percent mortality.

For assay [6], the system named is western flower thrip (Frankliniella occidentalis). In words: Test D: control of western flower thrip through contact and/or systemic means on Soleil bean plant. Conditions: sprayed at 250 ppm; adult thrips on Soleil bean plant; held 6 days at 25° C.; three replicates. The protocol: as §1
For evaluating control of the western flower thrip (Frankliniella occidentalis) through contact and/or systemic means, the test unit consisted of a small open container with a 5-7-day-old Soleil Bean plant inside. […] A mortality rating was assessed along with a plant damage rating for each test unit.

Broadly, the mortality is the share of the test organisms that died. Consider `O=C(NCc1ccc(C2=NOC(c3cc(Cl)cc(Cl)c3)(C(F)(F)F)C2)c2ccccc12)C1CC1` (stereo not shown) [Compound 1, N-[[4-[5-(3,5-dichlorophenyl)-4,5-dihydro-5-(trifluoromethyl)-3-isoxazolyl]-1-naphthalenyl]methyl]cyclopropanecarboxamide], for which the “control efficacy (20% or less feeding damage or 80% or more mortality)” value in assay [1] and in assay [2] was “very good to excellent levels of control efficacy” in each case. Besides, the mortality at 250 ppm in assay [3] was at least 80%.

For `CC(C)C(=O)NCc1ccc(C2=NOC(c3cc(Cl)cc(Cl)c3)(C(F)(F)F)C2)c2ccccc12` (stereo not shown) [Compound 2], the “control efficacy (20% or less feeding damage or 80% or more mortality)” value in assay [1] and in assay [2] was “very good to excellent levels of control efficacy” each time. The mortality at 250 ppm in assay [3], in assay [4] and in assay [5] was at least 80% in each case.

Regarding `N#CC(NC(=O)C1CC1)c1ccc(C2=NOC(c3cc(Cl)cc(Cl)c3)(C(F)(F)F)C2)c2ccccc12` (stereo not shown) [Compound 3], the “control efficacy (20% or less feeding damage or 80% or more mortality)” value in assay [1] and in assay [6] was “very good to excellent levels of control efficacy” throughout.

On to `CC(C)C(=O)NC(C)c1ccc(C2=NOC(c3cc(C(F)(F)F)cc(C(F)(F)F)c3)(C(F)(F)F)C2)c2ccccc12` (stereo not shown) [Compound 4], for which the “control efficacy (20% or less feeding damage or 80% or more mortality)” value in assay [1] is reported as “very good to excellent levels of control efficacy”.

For the compound `CC(C)C(=O)NCc1ccc(C2=NOC(c3cc(Cl)cc(C(F)(F)F)c3)(C(F)(F)F)C2)c2ccccc12` (stereo not shown) [Compound 5], the “control efficacy (20% or less feeding damage or 80% or more mortality)” value in assay [1] and in assay [2] was “very good to excellent levels of control efficacy” each time. Moreover, the mortality at 250 ppm in assay [3], in assay [4] and in assay [5] was at least 80% throughout.

For the compound `O=C(NCc1ccc(C2=NOC(c3cc(Cl)cc(C(F)(F)F)c3)(C(F)(F)F)C2)c2ccccc12)C1CC1` (stereo not shown) [Compound 6], the “control efficacy (20% or less feeding damage or 80% or more mortality)” value in assay [1] and in assay [2] was “very good to excellent levels of control efficacy” each time. In addition, the mortality at 250 ppm in assay [3] is at least 80%.
